In patent US8415469B2, “Compounds and methods for kinase modulation, and indications therefor” (Plexxikon Inc., priority 2005, dated 2013):

What was measured:
Format in all cases: biochemical
Stk6 = target: T1, Stk6 (Homo sapiens, UniProt O14965); assay: Z'-Lyte FRET kinase assay (Invitrogen), Stk6; conditions: read-out: IC50, activity toward kinase Stk6
T1 construct: purchased Invitrogen (Carlsbad, Calif.), screening service
T1 sequence (O14965 1-403): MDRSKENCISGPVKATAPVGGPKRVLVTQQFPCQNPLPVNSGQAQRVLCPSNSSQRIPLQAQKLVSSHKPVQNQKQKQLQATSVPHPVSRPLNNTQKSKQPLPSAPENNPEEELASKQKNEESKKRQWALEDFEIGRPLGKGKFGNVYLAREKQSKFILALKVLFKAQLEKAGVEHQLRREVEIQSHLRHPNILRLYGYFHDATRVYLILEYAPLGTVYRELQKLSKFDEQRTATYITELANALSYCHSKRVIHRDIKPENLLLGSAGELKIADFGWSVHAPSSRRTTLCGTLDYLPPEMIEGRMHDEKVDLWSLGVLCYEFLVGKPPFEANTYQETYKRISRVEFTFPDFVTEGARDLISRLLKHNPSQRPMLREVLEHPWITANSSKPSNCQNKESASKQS
From the text: (§2) For example, direct radiometric, indirect FRET or AlphaScreen assays may be used to assess the level of phosphorylation of a substrate in the presence of test compounds in order to determine the inhibitory affect of the compound on the kinase. […] For these assays, compounds of the invention were screened by Invitrogen using Z′-Lyte™ kinase assay.
(§3) Briefly, the Invitrogen kinase assay involves use of a specific peptide substrate optimized for each kinase, containing a fluorophore at each end that make up the FRET pair. The peptide sensitivity to proteolytic cleavage depends on phosphorylation of the peptide. Non-phosphorylated peptide is cleaved by a protease while peptide phosphorylated by the kinase is not cleaved. Cleavage of the peptide disrupts the FRET between the donor (coumarin) and acceptor (fluorescein) fluorophores, resulting in an increase in the ratio of donor emission to acceptor emission. The emission ratio of coumarin to fluorescein is used to assess the reaction progress. […] Thus, the assay involves a kinase reaction in the presence of varying concentrations of a given compound, a development reaction with site specific protease, and detection of the fluorescent emission ratio of coumarin and fluorscein. […] Reaction conditions for each kinase are determined to provide optimal reaction times, incubation temperature, kinase and ATP concentrations. Test samples are made up in 1× kinase buffer (50 mM HEPES pH 7.5, 50 mM MgCl2, 5 mM EGTA, 0.05% BRIJ-35) and compound at desired concentration prepared in DMSO such that the final DMSO is 1%. […] All kinase except for MAP2K1 were at 10 μM ATP in the kinase reaction, while MAP2K1 was at 100 μM. Samples are mixed and the kinase reaction is incubated 1 hour at room temperature, after which 5 μl of development solution is added and mixed. After incubation for another 1 hour at room temperature, 5 μl of stop reagent is added to each sample and mixed. The fluorescence signals are measured to determine the emission ratio.

Kdr = target: T2, Kdr (Homo sapiens, UniProt P35968); assay: Z'-Lyte FRET kinase assay (Invitrogen), Kdr; conditions: read-out: IC50, activity toward kinase Kdr
T2 construct: purchased Invitrogen (assay run by Invitrogen)

IKK beta = target: T3, IKK beta (Homo sapiens, UniProt O14920); assay: AlphaScreen kinase assay, IKK beta; conditions: read-out: IC50, activity toward kinase IKK beta
T3 sequence (O14920 1-756): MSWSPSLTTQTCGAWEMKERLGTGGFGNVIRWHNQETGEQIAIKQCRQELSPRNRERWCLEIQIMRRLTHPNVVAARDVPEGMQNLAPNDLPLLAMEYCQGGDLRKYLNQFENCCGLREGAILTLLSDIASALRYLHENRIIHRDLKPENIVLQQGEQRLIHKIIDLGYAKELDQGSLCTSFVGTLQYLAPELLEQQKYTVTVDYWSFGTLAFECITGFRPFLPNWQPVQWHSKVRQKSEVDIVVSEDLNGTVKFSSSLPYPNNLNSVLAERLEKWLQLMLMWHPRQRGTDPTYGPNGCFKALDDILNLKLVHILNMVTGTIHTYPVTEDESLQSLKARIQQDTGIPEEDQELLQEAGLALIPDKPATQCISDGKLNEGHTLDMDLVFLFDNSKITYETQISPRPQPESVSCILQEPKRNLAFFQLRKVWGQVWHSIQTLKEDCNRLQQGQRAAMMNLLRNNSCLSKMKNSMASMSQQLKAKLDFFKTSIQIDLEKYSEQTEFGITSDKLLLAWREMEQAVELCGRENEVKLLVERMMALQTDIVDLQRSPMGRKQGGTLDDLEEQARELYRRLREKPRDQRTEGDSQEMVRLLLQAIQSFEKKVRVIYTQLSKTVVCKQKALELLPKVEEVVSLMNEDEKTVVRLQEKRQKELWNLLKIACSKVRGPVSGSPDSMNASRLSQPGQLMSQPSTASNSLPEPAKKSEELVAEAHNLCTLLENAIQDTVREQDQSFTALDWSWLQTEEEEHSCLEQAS

Kit = target: T4, Kit (Homo sapiens, UniProt P10721); assay: AlphaScreen kinase assay, Kit; conditions: read-out: IC50, activity toward kinase Kit
T4 construct: P1332.N6 BI PTP KIT M552-K948-X COD; His6 (N); made in house; host or cells: E. coli (PTP1B co-expressed)

Jnk3 = target: T5, Jnk3 (Homo sapiens, UniProt P53779); assay: AlphaScreen kinase assay, Jnk3; conditions: read-out: IC50, activity toward kinase Jnk3
T5 construct: purchased Upstate Biotechnology

c-Raf-1 = target: T6, c-Raf-1 (Homo sapiens, UniProt P04049); assay: AlphaScreen kinase assay, c-Raf-1; conditions: read-out: IC50, activity toward kinase c-Raf-1
T6 construct: purchased Upstate Biotechnology
From the text: AlphaScreen assay was used to screen additional kinases. The assay is similarly dependent on the phosphorylation of a peptide substrate. In this assay, an antibody that recognizes phosphorylated substrate is bound to an acceptor bead. The peptide substrate is attached to biotin, which binds to a donor head that contains streptavidin. Thus phosphorylated substrate is bound by antibody and streptavidin, bringing the donor and acceptor heads into close proximity when kinase is not inhibited. The donor produces singlet oxygen which results in emission from the acceptor when they are in close proximity. Conversely, when kinase is inhibited, the donor and acceptor beads are not associated and the emission from the acceptor is reduced.
AlphaScreen assays were done using compounds dissolved in DMSO to a concentration of 20 mM. The compounds were diluted accordingly to the desired final concentrations in each sample well, using 1:3 serial dilution for a total of 8 concentration points. Plates were prepared such that each kinase reaction is 20 μl in 1× kinase buffer, 5% DMSO and 10 μM ATP. After incubation of the kinase reaction for 1 hour at room temperature, 5 μl of donor beads in stop buffer (50 mM EDTA in 1× kinase buffer) was added, the sample was mixed and incubated for 20 minutes at room temperature before adding 5 μl of acceptor beads in stop buffer. The samples were incubated for 60 minutes at room temperature and the signal per well was read on AlphaQuest reader.

B-Raf = target: T7, B-Raf (Homo sapiens, UniProt P15056); assay: AlphaScreen kinase assay, B-Raf; conditions: read-out: IC50, activity toward kinase B-Raf
T7 construct: purchased Upstate Biotechnology

MAP4K4 = MAP4K4 (Homo sapiens, UniProt O95819); assay: AlphaScreen kinase assay, MAP4K4; conditions: read-out: IC50, activity toward kinase MAP4K4
B-Raf V600E = target: T8, B-Raf V600E (Homo sapiens, UniProt P15056, V600E); assay: AlphaScreen kinase assay, B-Raf V600E; conditions: read-out: IC50, activity toward kinase B-Raf V600E
T8 construct: P4254. pFastBacBD-CDC37 BRAF D437-K722-X, V600E; His6 with pFastBac HT leader (TEV site) (N); made in house; host or cells: Sf9 (baculovirus; chaperone CDC37 co-expressed)

FGFR1 = target: T9, FGFR1 (Homo sapiens, UniProt P11362, C488A/C584S); assay: AlphaScreen kinase assay, FGFR1; conditions: read-out: IC50, activity toward kinase FGFR
T9 construct: P1351.pET N6 BI-PTP FGFR A458-E765-X C488A, C584S; made in house; host or cells: E. coli (PTP1B co-expressed)

MAP2K1 = target: T10, MAP2K1 (Homo sapiens, UniProt Q02750); assay: Z'-Lyte FRET kinase assay (Invitrogen), MAP2K1; conditions: read-out: IC50, activity toward kinase MAP2K1
T10 construct: purchased Invitrogen (assay run by Invitrogen)
From the text: as §2, §3

Ret = target: T11, Ret (Homo sapiens, UniProt P07949); assay: AlphaScreen kinase assay, Ret; conditions: read-out: IC50, activity toward kinase Ret
T11 construct: P1378.pET-SF BI-PTP RET H661-R1012 HIS; made in house
T11 sequence (P07949 with tags, fused parts or gaps): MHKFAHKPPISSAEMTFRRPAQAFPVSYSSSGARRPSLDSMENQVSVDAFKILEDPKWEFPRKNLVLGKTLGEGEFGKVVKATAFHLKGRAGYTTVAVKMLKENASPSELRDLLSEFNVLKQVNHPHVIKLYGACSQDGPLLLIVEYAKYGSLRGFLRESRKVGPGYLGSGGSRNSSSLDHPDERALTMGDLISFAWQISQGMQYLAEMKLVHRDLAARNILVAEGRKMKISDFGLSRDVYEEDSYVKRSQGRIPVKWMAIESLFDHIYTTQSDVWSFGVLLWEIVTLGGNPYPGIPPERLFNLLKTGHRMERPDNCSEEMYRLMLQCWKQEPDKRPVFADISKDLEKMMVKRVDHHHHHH

Akt3 = Akt3 (Homo sapiens, UniProt Q9Y243); assay: AlphaScreen kinase assay, Akt3; conditions: read-out: IC50, activity toward kinase Akt3
Method in brief: (§1)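 Biotinylated peptide substrate phosphorylation detected by AlphaScreen with phospho-specific antibody acceptor beads and streptavidin donor beads. Compounds tested as 8-point 1:3 serial dilutions from 20 mM DMSO stocks.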

Flt1 = target: T12, Flt1 (Homo sapiens, UniProt P17948); assay: AlphaScreen kinase assay, Flt1; conditions: read-out: IC50, activity toward kinase Flt1
T12 construct: P1826.pETN6 BI-PTP FLT1 M799-D1165-X WT; His6 (N); made in house; host or cells: E. coli (PTP1B co-expressed)
T12 sequence (P17948 with tags, fused parts or gaps): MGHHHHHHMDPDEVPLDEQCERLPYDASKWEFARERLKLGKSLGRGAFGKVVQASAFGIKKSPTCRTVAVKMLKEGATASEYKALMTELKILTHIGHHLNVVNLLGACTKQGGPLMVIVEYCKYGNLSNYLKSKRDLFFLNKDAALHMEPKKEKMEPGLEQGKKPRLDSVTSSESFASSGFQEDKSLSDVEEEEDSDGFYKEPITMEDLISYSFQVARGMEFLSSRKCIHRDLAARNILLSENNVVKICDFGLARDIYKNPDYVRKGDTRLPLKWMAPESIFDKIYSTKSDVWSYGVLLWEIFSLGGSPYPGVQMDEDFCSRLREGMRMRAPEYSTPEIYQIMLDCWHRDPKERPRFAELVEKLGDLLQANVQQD

Btk = target: T13, Btk (Homo sapiens, UniProt Q06187); assay: Z'-Lyte FRET kinase assay (Invitrogen), Btk; conditions: read-out: IC50, activity toward kinase Btk
T13 construct: purchased Invitrogen (assay run by Invitrogen)

Met = target: T14, Met (Homo sapiens, UniProt P08581); assay: AlphaScreen kinase assay, Met; conditions: read-out: IC50, activity toward kinase Met
T14 construct: P1818.pETN6 BI-PTP MET G1056-G1364-X WT; His6 (N); made in house; host or cells: E. coli (PTP1B co-expressed)
Method in brief: as §1

Measured: IC50

T2 sequence (P35968 20-1356): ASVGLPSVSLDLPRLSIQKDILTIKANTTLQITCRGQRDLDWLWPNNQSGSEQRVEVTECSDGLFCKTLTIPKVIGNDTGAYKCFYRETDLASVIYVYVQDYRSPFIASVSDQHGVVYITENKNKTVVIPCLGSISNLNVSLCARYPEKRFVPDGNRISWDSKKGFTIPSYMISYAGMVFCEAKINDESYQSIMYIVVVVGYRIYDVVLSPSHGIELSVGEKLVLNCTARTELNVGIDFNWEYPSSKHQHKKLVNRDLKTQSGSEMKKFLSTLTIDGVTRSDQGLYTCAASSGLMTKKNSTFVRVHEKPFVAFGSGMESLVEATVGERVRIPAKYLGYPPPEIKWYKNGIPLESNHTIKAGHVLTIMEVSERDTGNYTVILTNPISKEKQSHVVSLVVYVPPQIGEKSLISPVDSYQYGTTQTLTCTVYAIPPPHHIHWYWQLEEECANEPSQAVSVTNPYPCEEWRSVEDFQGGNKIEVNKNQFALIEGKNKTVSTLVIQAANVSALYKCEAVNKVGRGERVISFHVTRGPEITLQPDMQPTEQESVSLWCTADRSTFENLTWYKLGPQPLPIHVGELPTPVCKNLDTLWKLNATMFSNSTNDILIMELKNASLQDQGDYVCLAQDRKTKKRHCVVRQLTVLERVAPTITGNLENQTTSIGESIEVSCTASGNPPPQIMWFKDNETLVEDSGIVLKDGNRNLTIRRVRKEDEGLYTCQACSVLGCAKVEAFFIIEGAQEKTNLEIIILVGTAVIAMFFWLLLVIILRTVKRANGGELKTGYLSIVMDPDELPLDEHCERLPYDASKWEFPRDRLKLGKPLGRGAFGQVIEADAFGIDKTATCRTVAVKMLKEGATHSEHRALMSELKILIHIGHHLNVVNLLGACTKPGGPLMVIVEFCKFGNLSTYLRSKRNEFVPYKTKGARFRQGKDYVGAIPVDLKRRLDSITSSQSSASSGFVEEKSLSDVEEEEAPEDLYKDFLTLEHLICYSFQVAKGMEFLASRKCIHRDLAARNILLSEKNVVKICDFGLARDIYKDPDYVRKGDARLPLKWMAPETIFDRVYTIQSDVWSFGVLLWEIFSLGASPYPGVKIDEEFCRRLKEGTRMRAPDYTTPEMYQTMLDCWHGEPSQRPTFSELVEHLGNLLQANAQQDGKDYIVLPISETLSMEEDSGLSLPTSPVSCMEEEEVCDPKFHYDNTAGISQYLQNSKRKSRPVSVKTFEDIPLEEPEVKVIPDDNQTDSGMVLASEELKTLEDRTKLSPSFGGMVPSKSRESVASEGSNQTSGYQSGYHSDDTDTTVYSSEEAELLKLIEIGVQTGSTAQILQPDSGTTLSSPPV
T5 sequence (P53779 whole entry): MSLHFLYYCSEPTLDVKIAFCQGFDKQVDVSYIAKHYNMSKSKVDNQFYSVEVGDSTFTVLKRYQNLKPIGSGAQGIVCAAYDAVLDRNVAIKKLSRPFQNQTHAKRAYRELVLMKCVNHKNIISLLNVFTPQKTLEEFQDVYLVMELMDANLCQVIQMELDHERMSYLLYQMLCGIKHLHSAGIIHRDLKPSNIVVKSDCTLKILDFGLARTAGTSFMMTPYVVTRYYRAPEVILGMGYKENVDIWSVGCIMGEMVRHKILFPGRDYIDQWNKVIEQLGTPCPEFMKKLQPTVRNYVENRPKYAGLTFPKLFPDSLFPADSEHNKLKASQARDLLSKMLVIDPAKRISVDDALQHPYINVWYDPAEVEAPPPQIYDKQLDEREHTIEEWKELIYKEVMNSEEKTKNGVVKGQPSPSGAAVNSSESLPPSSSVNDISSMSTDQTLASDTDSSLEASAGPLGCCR
T10 sequence (Q02750 whole entry): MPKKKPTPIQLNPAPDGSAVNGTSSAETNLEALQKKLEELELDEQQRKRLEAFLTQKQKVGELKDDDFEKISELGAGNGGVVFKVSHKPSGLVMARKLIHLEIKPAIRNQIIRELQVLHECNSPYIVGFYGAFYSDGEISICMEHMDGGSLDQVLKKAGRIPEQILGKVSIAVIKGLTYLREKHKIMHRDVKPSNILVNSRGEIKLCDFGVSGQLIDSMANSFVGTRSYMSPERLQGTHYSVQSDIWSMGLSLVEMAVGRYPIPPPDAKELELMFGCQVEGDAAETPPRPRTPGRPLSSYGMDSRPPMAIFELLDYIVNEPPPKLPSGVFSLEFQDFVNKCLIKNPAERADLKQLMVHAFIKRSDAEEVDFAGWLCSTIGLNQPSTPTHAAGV
T8 sequence (P15056 with tags, fused parts or gaps V600E): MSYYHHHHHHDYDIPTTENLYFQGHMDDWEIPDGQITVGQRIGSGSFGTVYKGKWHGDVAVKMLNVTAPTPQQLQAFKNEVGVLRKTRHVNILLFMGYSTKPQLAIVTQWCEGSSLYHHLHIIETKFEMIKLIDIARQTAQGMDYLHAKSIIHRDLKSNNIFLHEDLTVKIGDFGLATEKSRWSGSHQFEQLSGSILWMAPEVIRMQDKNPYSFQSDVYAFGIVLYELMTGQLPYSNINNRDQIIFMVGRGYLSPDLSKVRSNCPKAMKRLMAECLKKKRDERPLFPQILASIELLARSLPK
T4 sequence (P10721 with tags, fused parts or gaps): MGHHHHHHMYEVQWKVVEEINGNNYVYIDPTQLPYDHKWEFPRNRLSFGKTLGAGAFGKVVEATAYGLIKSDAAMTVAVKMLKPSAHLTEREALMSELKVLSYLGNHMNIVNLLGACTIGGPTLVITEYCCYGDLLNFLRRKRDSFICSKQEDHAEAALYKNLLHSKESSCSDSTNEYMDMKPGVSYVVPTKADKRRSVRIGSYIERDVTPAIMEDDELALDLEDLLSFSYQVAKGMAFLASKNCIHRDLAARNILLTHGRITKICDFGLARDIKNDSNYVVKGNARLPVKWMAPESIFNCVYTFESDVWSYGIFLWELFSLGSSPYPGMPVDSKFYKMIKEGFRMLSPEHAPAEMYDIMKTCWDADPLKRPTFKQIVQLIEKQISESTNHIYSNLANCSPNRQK
T9 sequence (P11362 458-765 C488A/C584S): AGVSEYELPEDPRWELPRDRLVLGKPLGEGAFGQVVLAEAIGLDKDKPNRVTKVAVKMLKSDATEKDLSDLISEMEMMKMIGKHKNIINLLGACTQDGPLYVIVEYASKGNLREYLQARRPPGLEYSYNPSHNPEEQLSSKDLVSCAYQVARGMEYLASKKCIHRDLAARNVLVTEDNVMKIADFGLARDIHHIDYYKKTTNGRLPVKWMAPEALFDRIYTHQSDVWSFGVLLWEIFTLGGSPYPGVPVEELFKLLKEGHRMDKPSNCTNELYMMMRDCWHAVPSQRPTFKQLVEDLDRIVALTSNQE
Chain of Akt3 (Q9Y243 whole entry): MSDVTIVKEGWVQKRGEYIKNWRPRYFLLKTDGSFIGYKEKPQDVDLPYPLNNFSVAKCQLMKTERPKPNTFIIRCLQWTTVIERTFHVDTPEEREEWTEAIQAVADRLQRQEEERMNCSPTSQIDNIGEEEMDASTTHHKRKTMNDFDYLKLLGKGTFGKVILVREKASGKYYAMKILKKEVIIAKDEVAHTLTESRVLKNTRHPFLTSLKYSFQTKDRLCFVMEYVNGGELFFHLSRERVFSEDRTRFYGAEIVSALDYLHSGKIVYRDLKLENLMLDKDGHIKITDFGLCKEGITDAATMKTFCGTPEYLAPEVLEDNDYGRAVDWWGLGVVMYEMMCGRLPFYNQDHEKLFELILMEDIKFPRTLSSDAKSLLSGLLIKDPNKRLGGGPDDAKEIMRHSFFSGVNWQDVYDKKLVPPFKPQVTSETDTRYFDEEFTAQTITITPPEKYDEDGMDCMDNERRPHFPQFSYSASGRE
T6 sequence (P04049 whole entry): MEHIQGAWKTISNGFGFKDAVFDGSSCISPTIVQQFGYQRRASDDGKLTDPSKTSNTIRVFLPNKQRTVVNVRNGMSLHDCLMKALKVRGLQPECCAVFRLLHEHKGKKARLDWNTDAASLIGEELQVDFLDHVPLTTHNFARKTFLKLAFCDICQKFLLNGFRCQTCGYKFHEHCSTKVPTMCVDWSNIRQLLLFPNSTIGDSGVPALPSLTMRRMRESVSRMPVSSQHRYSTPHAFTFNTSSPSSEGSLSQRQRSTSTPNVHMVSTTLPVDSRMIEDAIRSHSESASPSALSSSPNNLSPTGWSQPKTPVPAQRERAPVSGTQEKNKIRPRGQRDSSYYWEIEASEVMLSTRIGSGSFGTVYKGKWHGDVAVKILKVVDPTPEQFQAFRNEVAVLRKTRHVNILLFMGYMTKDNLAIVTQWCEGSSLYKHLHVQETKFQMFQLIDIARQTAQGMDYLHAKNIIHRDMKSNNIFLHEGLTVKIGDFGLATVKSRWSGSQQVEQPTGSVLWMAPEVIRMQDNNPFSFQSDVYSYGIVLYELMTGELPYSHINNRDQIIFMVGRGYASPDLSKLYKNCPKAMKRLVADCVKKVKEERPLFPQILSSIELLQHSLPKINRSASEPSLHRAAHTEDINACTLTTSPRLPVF
T13 sequence (Q06187 whole entry): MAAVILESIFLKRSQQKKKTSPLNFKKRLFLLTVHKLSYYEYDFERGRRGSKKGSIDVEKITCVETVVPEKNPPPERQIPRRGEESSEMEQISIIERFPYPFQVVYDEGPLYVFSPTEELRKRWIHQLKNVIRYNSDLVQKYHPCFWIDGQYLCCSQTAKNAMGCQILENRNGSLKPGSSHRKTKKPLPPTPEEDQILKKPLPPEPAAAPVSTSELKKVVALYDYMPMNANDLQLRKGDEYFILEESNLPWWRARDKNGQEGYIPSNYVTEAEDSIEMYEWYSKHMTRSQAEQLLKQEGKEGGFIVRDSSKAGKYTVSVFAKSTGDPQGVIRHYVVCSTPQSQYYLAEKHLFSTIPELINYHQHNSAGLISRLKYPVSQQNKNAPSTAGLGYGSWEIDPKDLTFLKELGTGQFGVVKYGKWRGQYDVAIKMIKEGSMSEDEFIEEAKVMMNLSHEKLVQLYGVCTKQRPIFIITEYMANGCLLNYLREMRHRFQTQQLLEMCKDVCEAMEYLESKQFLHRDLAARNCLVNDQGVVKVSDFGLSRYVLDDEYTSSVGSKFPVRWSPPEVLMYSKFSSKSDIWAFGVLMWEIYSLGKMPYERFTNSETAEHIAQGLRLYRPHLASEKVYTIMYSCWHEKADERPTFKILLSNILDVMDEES

Cc1nc(-c2ccnc3[nH]ccc23)no1 [Compound P-0163]
≤ 10 µM: Stk6 | Kdr | IKK beta

c1cc2cc(-c3ccsc3)cnc2[nH]1 [Compound P-0133]
≤ 10 µM: Kit | Jnk3 | Stk6 | Kdr | IKK beta

COc1cccc(-c2c[nH]c3ncccc23)c1 [Compound P-0216]
≤ 10 µM: Kit | Kdr | IKK beta

CCCNS(=O)(=O)c1ccc(F)c(C(=O)c2c[nH]c3ncc(-c4cccnc4)cc23)c1F [Compound P-0896]
≤ 10 µM: c-Raf-1 | B-Raf | MAP4K4 | B-Raf V600E | FGFR1 | IKK beta

N#CCc1ccc(-c2c[nH]c3ncccc23)cc1 [Compound P-0164]
≤ 10 µM: Stk6 | Kdr | IKK beta

Cc1ccc(-c2ccnc3[nH]ccc23)cc1N [Compound P-0111]
≤ 10 µM: MAP2K1 | Stk6 | Kdr | IKK beta

c1csc(-c2cnc3[nH]ccc3c2)c1 [Compound P-0179]
≤ 10 µM: Ret | Kit | Jnk3 | Stk6 | Kdr | IKK beta

Nc1cccc(C(=O)c2c[nH]c3ncccc23)c1 [Compound P-0096]
≤ 10 µM: Ret | Kdr | FGFR1 | IKK beta

Cc1cc(-c2c(C)[nH]c3ncccc23)ccc1F [Compound P-0376]
≤ 10 µM: Kdr | IKK beta

C(#Cc1ccnc2[nH]ccc12)c1ccccc1 [Compound P-0436]
≤ 10 µM: Stk6 | Akt3 | IKK beta

C=Cc1ccc(-c2ccnc3[nH]ccc23)cc1 [Compound P-0098]
≤ 10 µM: MAP2K1 | Stk6 | Kdr | IKK beta

Fc1cc(F)cc(-c2ccnc3[nH]cc(Sc4ccc(Cl)cc4)c23)c1 [Compound P-0172]
≤ 10 µM: Stk6 | Kdr | IKK beta

Clc1ccc(-c2ccnc3[nH]ccc23)cn1 [Compound P-0127]
≤ 10 µM: Kit | Stk6 | Akt3 | Flt1 | Kdr | IKK beta

c1ccc2sc(-c3ccnc4[nH]ccc34)cc2c1 [Compound P-0404]
≤ 10 µM: Kit | Akt3 | Flt1 | FGFR1 | IKK beta

CCS(=O)(=O)c1ccc(-c2c[nH]c3ncccc23)cc1 [Compound P-0272]
≤ 10 µM: Stk6 | IKK beta

COc1cccc(C(=O)c2c[nH]c3nccc(-c4ccc(C(N)=O)cc4)c23)c1 [Compound P-0073]
≤ 10 µM: Ret | Kdr | B-Raf V600E | FGFR1 | IKK beta | Btk

CS(=O)(=O)c1ccc(-c2c[nH]c3ncccc23)cc1 [Compound P-0177]
≤ 10 µM: MAP2K1 | Stk6 | Flt1 | Kdr | IKK beta

CN(C)c1ccc(Nc2cnc3[nH]ccc3c2)cc1 [Compound P-0962]
≤ 10 µM: Kit | Jnk3 | Akt3 | Flt1 | Kdr | B-Raf V600E | Met | IKK beta

CS(=O)(=O)c1ccc(-c2cnc3[nH]ccc3c2)cc1 [Compound P-0682]
≤ 10 µM: Ret | Kit | Jnk3 | IKK beta
